Results: US20260356851A1, “TRICYCLIC COMPOUNDS AND USES THEREOF” (HUTCHMED LIMITED, priority 2023, published 2026)

Columns and labels:
Assay type in all cases: cell-based
[1] = biological target: T1, pERK1/2 (Thr202/Tyr204), NCI-1H441 (KRAS G12V) (Homo sapiens, UniProt P01116, G12V); experiment: Assay of intracellular pERK1/2 (Thr202/Tyr204) phosphorylation in NCI-H441 cells (KRAS G12V); settings: pERK1/2, 2 days, read-out: NCI-H441 (KRAS G12V) IC50
T1 construct: pERK1/2 HTRF read-out
In short: (§1)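 Cells (10000-12000/well) exposed to 3-fold compound dilutions for 2 days at 37 °C, then lysed; pERK1/2 (Thr202/Tyr204) measured by HTRF with d2 and cryptate antibodies, 665/615 nm ratio.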

[2] = biological target: T2, pERK1/2 (Thr202/Tyr204), NCI-1H358 (KRAS G12C) (Homo sapiens, UniProt P01116, G12C); experiment: Assay of intracellular pERK1/2 (Thr202/Tyr204) phosphorylation in NCI-H358 cells (KRAS G12C); settings: pERK1/2, 2 days, read-out: NCI-H358 (KRAS G12C) IC50
T2 construct: pERK1/2 HTRF read-out
In short: as §1

[3] = biological target: T3, pERK1/2 (Thr202/Tyr204), PANC-1 (KRAS G121D) (Homo sapiens, UniProt P01116, G12D); experiment: Assay of intracellular pERK1/2 (Thr202/Tyr204) phosphorylation in PANC-1 cells (KRAS G12D); settings: pERK1/2, 2 days, read-out: PANC-1 (KRAS G12D) IC50
T3 construct: pERK1/2 HTRF read-out
In short: as §1

T3 sequence (P01116 1-188 isoform P01116-2 G12D): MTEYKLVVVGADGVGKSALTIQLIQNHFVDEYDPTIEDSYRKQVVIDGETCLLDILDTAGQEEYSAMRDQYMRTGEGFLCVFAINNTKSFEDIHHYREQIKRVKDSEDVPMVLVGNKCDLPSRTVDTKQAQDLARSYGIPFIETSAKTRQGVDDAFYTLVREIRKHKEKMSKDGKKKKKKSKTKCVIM
T1 sequence (P01116 1-188 isoform P01116-2 G12V): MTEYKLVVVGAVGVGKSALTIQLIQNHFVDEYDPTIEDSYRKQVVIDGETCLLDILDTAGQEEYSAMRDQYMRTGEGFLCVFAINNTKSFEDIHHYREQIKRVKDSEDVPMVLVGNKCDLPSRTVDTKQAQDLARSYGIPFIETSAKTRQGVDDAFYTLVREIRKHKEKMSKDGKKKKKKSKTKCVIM
T2 sequence (P01116 1-188 isoform P01116-2 G12C): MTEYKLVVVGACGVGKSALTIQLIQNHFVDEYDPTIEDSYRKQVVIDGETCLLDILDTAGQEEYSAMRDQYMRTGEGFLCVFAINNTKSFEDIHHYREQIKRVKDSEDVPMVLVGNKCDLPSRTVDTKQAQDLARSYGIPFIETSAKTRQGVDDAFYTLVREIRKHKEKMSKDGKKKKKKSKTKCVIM

IC50 [1]	IC50 [2]	IC50 [3]	SMILES
37 nM	38 nM	> 100 nM	Cc1cc(N)cc(-c2nc3c4c(nc(OC[C@@H]5CCCN5C)nc4c2F)N(C(C)c2cccnc2N)CCO3)c1C(F)(F)F (single isomer, unassigned) [Compound 77, 3-((R or S)-1-(5-(5-amino-3-methyl-2-(trifluoromethyl)phenyl)-4-fluoro-2-(((S)-1-methylpyrrolidin-2-yl)methoxy)-8,9-dihydro-10H-7-oxa-1,3,6,10-tetraazacyclohepta[de]naphthalen-10-yl)ethyl)pyridin-2-amine]
3 nM	2 nM	42 nM	Cc1cc(N)cc(-c2nc3c4c(nc(OC[C@H]5CCCN5CCF)nc4c2F)N(C(C)c2cccnc2N)CCO3)c1C(F)(F)F (single isomer, unassigned) [Compound 78, 3-((R or S)-1-(5-(5-amino-3-methyl-2-(trifluoromethyl)phenyl)-4-fluoro-2-(((R)-1-(2-fluoroethyl)pyrrolidin-2-yl)methoxy)-8,9-dihydro-10H-7-oxa-1,3,6,10-tetraazacyclohepta[de]naphthalen-10-yl)ethyl)pyridin-2-amine]
> 100 nM	> 100 nM	> 100 nM	Cc1cc(N)cc(-c2nc3c4c(nc(OC[C@H]5CCCN5CCF)nc4c2F)N(C(C)c2cccnc2N)CCO3)c1C(F)(F)F (single isomer, unassigned) [Compound 79, 3-((R or S)-1-(5-(5-amino-3-methyl-2-(trifluoromethyl)phenyl)-4-fluoro-2-(((R)-1-(2-fluoroethyl)pyrrolidin-2-yl)methoxy)-8,9-dihydro-10H-7-oxa-1,3,6,10-tetraazacyclohepta[de]naphthalen-10-yl)ethyl)pyridin-2-amine]
0.7 nM	0.5 nM	19 nM	Cc1cc(N)cc(-c2nc3c4c(nc(OC[C@@H]5C[C@@H](F)CN5C)nc4c2F)N(C(C)c2cccnc2N)CCO3)c1C(F)(F)F (single isomer, unassigned) [Compound 80, 3-((R or S)-1-(5-(5-amino-3-methyl-2-(trifluoromethyl)phenyl)-4-fluoro-2-(((2S,4R)-4-fluoro-1-methylpyrrolidin-2-yl)methoxy)-8,9-dihydro-10H-7-oxa-1,3,6,10-tetraazacyclohepta[de]naphthalen-10-yl)ethyl)pyridin-2-amine]
> 100 nM	> 100 nM	> 100 nM	Cc1cc(N)cc(-c2nc3c4c(nc(OC[C@@H]5C[C@@H](F)CN5C)nc4c2F)N(C(C)c2cccnc2N)CCO3)c1C(F)(F)F (single isomer, unassigned) [Compound 81, 3-((R or S)-1-(5-(5-amino-3-methyl-2-(trifluoromethyl)phenyl)-4-fluoro-2-(((2S,4R)-4-fluoro-1-methylpyrrolidin-2-yl)methoxy)-8,9-dihydro-10H-7-oxa-1,3,6,10-tetraazacyclohepta[de]naphthalen-10-yl)ethyl)pyridin-2-amine]
2 nM	0.4 nM	11 nM	Cc1c(F)c(N)cc(-c2nc3c4c(nc(OC[C@@H]5CCCN5C)nc4c2F)N(C(C)c2cccnc2N)CCO3)c1C(F)(F)F (single isomer, unassigned) [Compound 85, 3-((R or S)-1-(5-(5-amino-4-fluoro-3-methyl-2-(trifluoromethyl)phenyl)-4-fluoro-2-(((S)-1-methylpyrrolidin-2-yl)methoxy)-8,9-dihydro-10H-7-oxa-1,3,6,10-tetraazacyclohepta[de]naphthalen-10-yl)ethyl)pyridin-2-amine]
43 nM	29 nM	> 100 nM	Cc1c(F)c(N)cc(-c2nc3c4c(nc(OC[C@@H]5CCCN5C)nc4c2F)N(C(C)c2cccnc2N)CCO3)c1C(F)(F)F (single isomer, unassigned) [Compound 86, 3-((R or S)-1-(5-(5-amino-4-fluoro-3-methyl-2-(trifluoromethyl)phenyl)-4-fluoro-2-(((S)-1-methylpyrrolidin-2-yl)methoxy)-8,9-dihydro-10H-7-oxa-1,3,6,10-tetraazacyclohepta[de]naphthalen-10-yl)ethyl)pyridin-2-amine]
1 nM	0.4 nM	3 nM	CC(c1cccnc1N)N1CCOc2nc(-c3cc(N)cc(F)c3C(F)(F)F)c(F)c3nc(OC[C@@]45CCCN4C[C@H](F)C5)nc1c23 (single isomer, unassigned) [Compound 88, 3-((R or S)-1-(5-(5-amino-3-fluoro-2-(trifluoromethyl)phenyl)-4-fluoro-2-(((2R,7aS)-2-fluorotetrahydro-1H-pyrrolizin-7a(5H)-yl)methoxy)-8,9-dihydro-10H-7-oxa-1,3,6,10-tetraazacyclohepta[de]naphthalen-10-yl)ethyl)pyridin-2-amine]
43 nM	26 nM	> 100 nM	CC(c1cccnc1N)N1CCOc2nc(-c3cc(N)cc(F)c3C(F)(F)F)c(F)c3nc(OC[C@@]45CCCN4C[C@H](F)C5)nc1c23 (single isomer, unassigned) [Compound 89, 3-((R or S)-1-(5-(5-amino-3-fluoro-2-(trifluoromethyl)phenyl)-4-fluoro-2-(((2R,7aS)-2-fluorotetrahydro-1H-pyrrolizin-7a(5H)-yl)methoxy)-8,9-dihydro-10H-7-oxa-1,3,6,10-tetraazacyclohepta[de]naphthalen-10-yl)ethyl)pyridin-2-amine]
6 nM	2 nM	91 nM	CC(c1cccnc1N)N1CCOc2nc(-c3cc(N)cc(F)c3C(F)(F)F)c(F)c3nc(OC[C@@H]4CCCN4C)nc1c23 (single isomer, unassigned) [Compound 90, 3-((R or S)-1-(5-(5-amino-3-fluoro-2-(trifluoromethyl)phenyl)-4-fluoro-2-(((S)-1-methylpyrrolidin-2-yl)methoxy)-8,9-dihydro-10H-7-oxa-1,3,6,10-tetraazacyclohepta[de]naphthalen-10-yl)ethyl)pyridin-2-amine]
> 100 nM	> 100 nM	> 100 nM	CC(c1cccnc1N)N1CCOc2nc(-c3cc(N)cc(F)c3C(F)(F)F)c(F)c3nc(OC[C@@H]4CCCN4C)nc1c23 (single isomer, unassigned) [Compound 91, 3-((R or S)-1-(5-(5-amino-3-fluoro-2-(trifluoromethyl)phenyl)-4-fluoro-2-(((S)-1-methylpyrrolidin-2-yl)methoxy)-8,9-dihydro-10H-7-oxa-1,3,6,10-tetraazacyclohepta[de]naphthalen-10-yl)ethyl)pyridin-2-amine]
2 nM	1 nM	58 nM	CC(c1cccnc1N)N1CCOc2nc(-c3cc(N)cc(F)c3C(F)(F)F)c(F)c3nc(OC[C@@H]4C[C@@H](F)CN4C)nc1c23 (single isomer, unassigned) [Compound 92, 3-((R or S)-1-(5-(5-amino-3-fluoro-2-(trifluoromethyl)phenyl)-4-fluoro-2-(((2S,4R)-4-fluoro-1-methylpyrrolidin-2-yl)methoxy)-8,9-dihydro-10H-7-oxa-1,3,6,10-tetraazacyclohepta[de]naphthalen-10-yl)ethyl)pyridin-2-amine]
